Laboratory results as given in patent US20110244569A1, “METHOD OF INDUCING PROLIFERATION AND/OR DIFFERENTIATION OF NEURAL PRECURSOR CELLS BY INTRODUCING PROLACTIN OR WNT3A TO ACTIVATE LATENT NEURAL PRECURSOR CELLS” (priority 2008, published 2011).
Counter-ions that a name gives are not always drawn.

What was measured:
[1] = test system: primary hippocampal cells; assay: Primary neurosphere culture, hippocampus; format: cell-based, mouse; conditions: for generation of very large neurospheres (>250 μm) passaged long-term / increase in number of hippocampal neurospheres generated / number of hippocampal neurospheres: 1 ng/mL Wnt3a or 2 ng/mL PRL; for number of hippocampal neurospheres: n=3; for neurosphere number, aged hippocampus: aged (18 month old) hippocampus, n=4
Experimental: The tissue was enzymatically digested with 0.1% trypsin-EDTA (Gibco/Invitrogen, Eugene, Oreg.) for 7 minutes at 37° C., followed by a wash with 0.014% w/v trypsin inhibitor (type I-S from soybean; Sigma-Aldrich Australia, Sydney, Australia) dissolved in Hepes-buffered minimum essential medium (HEM), which consisted of minimum essential medium (Gibco/Invitrogen) supplemented with 16 mM HEPES (Sigma-Aldrich Australia) and 100 units/ml penicillin/streptomycin (Gibco/Invitrogene). The tissue was centrifuged at 100 rcf for 7 minutes, following which the pellet was resuspended in 1 ml neurosphere growth medium, mechanically triturated until smooth, then filtered through a 40 μm cell sieve (Falcon/BD Biosciences Australia, North Ryde, Australia). The neurosphere growth medium consisted of mouse NeuroCult™ NSC Basal Medium plus mouse NeuroCult™ NSC Proliferation Supplements (StemCell Technologies, Vancouver, Canada) with 2% bovine serum albumin (Roche, Basel, Switzerland) and 2 μg/ml heparin (Sigma-Aldrich Australia). The following growth factors were also included: 20 ng/ml purified mouse receptor-grade EGF (BD Biosciences Australia) and 10 ng/ml recombinant bovine FGF-2 (Roche). After centrifugation at 100 rcf for 7 minutes, the cells were plated at a density of approximately one hippocampus, SVZ or cortex or four olfactory bulbs per 96-well plate (Falcon/BD Biosciences Australia) with 200 μl neurosphere medium per well.
The neurosphere growth medium already contained 4.18 mM KCl. […] This level of potassium is around five times that of the normal physiological concentration of potassium, ˜4 mM. Nicardipine (Sigma-Aldrich), when used, was added to a final concentration of 10 μM. BaCl was used as an alternative to KCl in some experiments at a concentration of 1 mM and GABA at 100 μM. Recombinant mouse Wnt3a (R&D Systems) and recombinant mouse prolactin (PRL; R&D Systems) were added instead of KCl in some experiments at concentrations of 1 ng/mL and 2 ng/mL respectively.
(§1) Primary hippocampal cells were incubated for 10 days, and SVZ, olfactory bulb or cortical cells for 7 days, in humidified 5% CO2 to permit neurosphere formation. The primary neurospheres were then counted and collected for passaging or differentiation. Results of the neurosphere counts were expressed as mean±standard error and statistical analysis was performed using a standard t-Test (two sample assuming equal variance).

SVZ cells = assay: Primary neurosphere culture, SVZ; format: cell-based, mouse; conditions: for number of SVZ-derived neurospheres: 1 ng/mL Wnt3a or 2 ng/mL PRL, n=2
Experimental: Adult (6-8 week old) male C57/B16 mice were killed by cervical dislocation, their brains immediately removed and the hippocampus, SVZ, olfactory bulb or cortex dissected. The tissue was enzymatically digested with 0.1% trypsin-EDTA (Gibco/Invitrogen, Eugene, Oreg.) for 7 minutes at 37° C., followed by a wash with 0.014% w/v trypsin inhibitor (type I-S from soybean; Sigma-Aldrich Australia, Sydney, Australia) dissolved in Hepes-buffered minimum essential medium (HEM), which consisted of minimum essential medium (Gibco/Invitrogen) supplemented with 16 mM HEPES (Sigma-Aldrich Australia) and 100 units/ml penicillin/streptomycin (Gibco/Invitrogene). The tissue was centrifuged at 100 rcf for 7 minutes, following which the pellet was resuspended in 1 ml neurosphere growth medium, mechanically triturated until smooth, then filtered through a 40 μm cell sieve (Falcon/BD Biosciences Australia, North Ryde, Australia). The neurosphere growth medium consisted of mouse NeuroCult™ NSC Basal Medium plus mouse NeuroCult™ NSC Proliferation Supplements (StemCell Technologies, Vancouver, Canada) with 2% bovine serum albumin (Roche, Basel, Switzerland) and 2 μg/ml heparin (Sigma-Aldrich Australia). The following growth factors were also included: 20 ng/ml purified mouse receptor-grade EGF (BD Biosciences Australia) and 10 ng/ml recombinant bovine FGF-2 (Roche). After centrifugation at 100 rcf for 7 minutes, the cells were plated at a density of approximately one hippocampus, SVZ or cortex or four olfactory bulbs per 96-well plate (Falcon/BD Biosciences Australia) with 200 μl neurosphere medium per well.
The neurosphere growth medium already contained 4.18 mM KCl. […]
as §1

C57BL/6 male mice = assay: Pilocarpine-induced seizures; format: in vivo, mouse; conditions: 350 mg/kg intraperitoneal
Experimental: Seizures were induced in 6-8 week old C57BL/6 male mice by the administration of pilocarpine, a muscarinic cholinergic agonist. Thirty minutes prior to pilocarpine administration, the mice were injected with 2.5 mg/kg of the cholinergic antagonist scopolamine methyl nitrate (Sigma-Aldrich) to reduce peripheral cholinergic effects. They then received intraperitoneal injections of 350 mg/kg pilocarpine hydrochloride (Sigma-Aldrich). […] Seizures were stopped 2 hours after status epilepticus onset, with an intraperitoneal injection of 5 mg/kg diazepam ([…], Parnell Laboratories Sydney, Australia).

olfactory bulb cells = assay: Primary neurosphere culture, olfactory bulb; format: cell-based, mouse; conditions: potassium-activated vs control
Experimental: (§2) Adult (6-8 week old) male C57/B16 mice were killed by cervical dislocation, their brains immediately removed and the hippocampus, SVZ, olfactory bulb or cortex dissected. The tissue was enzymatically digested with 0.1% trypsin-EDTA (Gibco/Invitrogen, Eugene, Oreg.) for 7 minutes at 37° C., followed by a wash with 0.014% w/v trypsin inhibitor (type I-S from soybean; Sigma-Aldrich Australia, Sydney, Australia) dissolved in Hepes-buffered minimum essential medium (HEM), which consisted of minimum essential medium (Gibco/Invitrogen) supplemented with 16 mM HEPES (Sigma-Aldrich Australia) and 100 units/ml penicillin/streptomycin (Gibco/Invitrogene). The tissue was centrifuged at 100 rcf for 7 minutes, following which the pellet was resuspended in 1 ml neurosphere growth medium, mechanically triturated until smooth, then filtered through a 40 μm cell sieve (Falcon/BD Biosciences Australia, North Ryde, Australia). […]
as §1

cortical cells = assay: Primary neurosphere culture, cortex; format: cell-based, mouse; conditions: depolarization vs control
Experimental: as §2, §1

hippocampal neurospheres = assay: Hippocampal neurosphere passaging; format: cell-based, mouse
Experimental: Primary neurospheres from the unstimulated hippocampus were also passaged as single spheres.
Hippocampal neurosphere cultures were initiated by removing 150 μl of the medium from wells containing single neurospheres, treating with 100 μl 0.1% trypsin-EDTA for 2 minutes at room temperature, followed by washing with 100 μl trypsin inhibitor in HEM. The neurospheres were mechanically triturated until dissociated and replated in well plates in 2 ml of complete medium. Neurospheres were passaged every 10 days by centrifuging the neurospheres, removing the medium and incubating in 1 ml of 0.1% trypsin-EDTA for 2 minutes at room temperature. After the addition of an equal volume of trypsin inhibitor, the neurospheres were centrifuged at 100 rcf for 5 minutes and the supernatant removed. Cells were mechanically triturated in 500 μl of complete medium and trypan blue staining was used to evaluate the number of cells, both viable and total number, on a hemocytometer. The passaged cells were then re-plated with complete medium at a density of 1×10^4 cells/cm^2 in tissue culture flasks (Nunc, Rochester, N.Y.) or tissue culture plates (Falcon/BD Biosciences) as appropriate.

[2] = test system: primary hippocampal cells; assay: Microarray analysis after KCl depolarization; format: cell-based, mouse; conditions: following depolarization, P<0.001
Experimental: Hippocampal tissue was dissected and dissociated as described above and incubated either in the presence or absence of 15 mM KCl for 24 hours. Cells were pelleted and total RNA was isolated using the RNeasy mini kit (Qiagen) and quantitated using the Bioanalyzer 2100 (Agilent). aRNA was prepared from 500 ng of RNA using the Message-Amp™-II Biotin Enhanced Kit (Ambion). A total of 15 μg biotinylated aRNA was fragmented and run on a GeneChip mouse Genome 430A 2.0 Array (Affymetrix) in accordance with the manufacturer's instructions.

[3] = test system: latent precursor cell population; assay: Neurosphere culture of FACS-sorted Emx1-GFP / GFAP-GFP cells; format: cell-based, mouse
Experimental: DCX-GFP, Emx1-GFP and GFAP-GFP mice are from the Mutant Mouse Regional Resource Center, The Gene Expression Nervous System Atlas BAC transgenic project (Gong et al., 2002).
Brains were collected and processed. GFP^+ve cells were separated by fluorescence-activated cell sorting (FACS) using a FACS Vantage cell sorter (BD Biosciences). A wild-type littermate control was used to determine background fluorescence levels. For primary neurosphere cultures the cells were plated at a density of 500 cells/well in 96-well plates (Falcon/BD Biosciences, San Jose, Calif.) with 0.2 ml complete medium per well. Complete medium consisted of mouse NeuroCult™ NSC Basal Medium plus mouse NeuroCult™ NSC Proliferation Supplements (StemCell Technologies,
Vancouver, Canada) with 2% bovine serum albumin (Roche, Basel, Switzerland) and 2 μg/ml heparin (Sigma-Aldrich). The following growth factors were also included: 20 ng/ml purified mouse receptor-grade epidermal growth factor (EGF; BD Biosciences Australia) and 10 ng/ml recombinant bovine basic fibroblast growth factor (FGF-2; Roche). Primary cells were incubated for 7 days in humidified 5% CO2 to permit neurosphere formation. The primary neurospheres were then counted and collected for passaging or differentiation. Results of the neurosphere counts were expressed as mean+ or −standard error and statistical analysis was performed using a standard t-Test (two sample assuming equal variance).

SVZ-derived neurospheres = conditions: cited from earlier work
adult female mice = conditions: infusion, cited from earlier work
[4] = 10 nM and 30 nM PRL in presence of EGF

Wnt3a
generation of very large neurospheres (>250 μm) passaged long-term [1]: generation of a number of the very large neurospheres
increase in number of hippocampal neurospheres generated [1]: 2 fold
number of hippocampal neurospheres [1]: 204±66.1 % of control
neurosphere number, aged hippocampus [1]: 580±230 % of control
number of SVZ-derived neurospheres (SVZ cells): 98.5±4.5 % of control

CC[C@@H]1C(=O)OC[C@@H]1Cc1cncn1C [pilocarpine, pilocarpine hydrochloride]
mice in which seizures were observed (C57BL/6 male mice): 70%
seizing mice that entered status epilepticus (C57BL/6 male mice): 35%
time to status epilepticus after injection (C57BL/6 male mice): 78 ± 43 min

[Cl-].[K+] [KCl, potassium chloride]
increase in number of neurospheres generated ([1]; 20 mM KCl vs control (4 mM) potassium or sodium osmotic control, adult mouse): over 3 fold
increase in number of neurospheres, stimulated vs control ([1]; 18 month old hippocampus, depolarizing conditions): over 12 fold
effect on number of neurospheres generated ([1]; KCl as low as 10 mM and as high as 30 mM): significantly increase the number of neurospheres generated
optimal depolarizing level ([1]; KCl dose response assay): 15 mM
further increase of 33 week HD hippocampal precursors ([1]; R6/1 Huntington's disease mice, 33 weeks, potassium depolarization in vitro): could not be further increased
further stimulation of precursors from mice that underwent SE ([1]; depolarizing levels of potassium added in vitro after status epilepticus): no further stimulatory effect
decrease in neurosphere number (SVZ cells; potassium-induced depolarization, adult SVZ): approx 40%
increase in number of olfactory bulb neurospheres (olfactory bulb cells): over 3 fold
size of activated olfactory-bulb neurospheres (olfactory bulb cells): significant increase in the size
increase in cortex neurosphere number (cortical cells): over 3 fold
diameter of stimulated neurospheres capable of long term passage (hippocampal neurospheres; all twenty three): > 110 μm
large primary spheres that could be expanded in culture for up to 10 passages (hippocampal neurospheres; potassium stimulated, standard conditions 0/113): 23 out of 64
up-regulation of PRL [2]: 6.4 fold
up-regulation of Wnt3a [2]: 14.4 fold
SFU ([3]; Emx1+ve cells + KCL): 1/37
SFU ([3]; Emx1-ve cells + KCL): 1/10896
SFU ([3]; GFAP+ve cells + KCL): 1/127
SFU ([3]; GFAP-ve cells + KCL): 1/2220

[Ba+2].[Cl-].[Cl-] [BaCl2, barium chloride]
increase in numbers of neurospheres ([1]; 1 mM BaCl2): over 2 fold

B1: PRL: recombinant mouse prolactin (PRL; R&D Systems) (protein, UniProt P06879 30-226, looked up)
Prolactin: LPICSAGDCQTSLRELFDRVVILSHYIHTLYTDMFIEFDKQYVQDREFMVKVINDCPTSSLATPEDKEQALKVPPEVLLNLILSLVQSSSDPLFQLITGVGGIQEAPEYILSRAKEIEEQNKQLLEGVEKIISQAYPEAKGNGIYFVWSQLPSLQGVDEESKILSLRNTIRCLRRDSHKVDNFLKVLRCQIAHQNNC
generation of very large neurospheres (>250 μm) passaged long-term [1]: generation of a number of the very large neurospheres
increase in number of hippocampal neurospheres generated [1]: 2 fold
number of hippocampal neurospheres [1]: 217±13 % of control
neurosphere number, aged hippocampus [1]: 254±23 % of control
number of SVZ-derived neurospheres (SVZ cells): 100±9 % of control
effect on number of SVZ-derived neurospheres (SVZ-derived neurospheres; 1 nM PRL): no effect
increase in number of neurons per neurosphere (SVZ-derived neurospheres; [4]): two-fold
increase in numbers of SVZ-derived neurospheres (SVZ-derived neurospheres; [4]): up to 35%
number of neurospheres in vitro, prolactin alone (SVZ-derived neurospheres; without EGF, US 2003/0054998): did not significantly increase
number of new olfactory interneurons (adult female mice; after 4 weeks): doubled
BrdU-labeled cells in the forebrain SVZ (adult female mice; US 2003/0054998): increased
number of proliferating cells in hippocampal dentate gyrus (adult female mice): no effect
